Source: patent publication US20240299400A1, “Transcription Factor GLI1 Inhibitors and Uses Thereof” (University of Connecticut, priority 2023, published 2024)

Tests used:
GLI1 mRNA expression [1] = test: RT-qPCR GLI1 mRNA expression in ASZ001 BCC cells; type: cell-based, mouse; conditions: for reduction of GLI1 expression in ASZ001 (in words): concentrations up to 10 μM
Procedure: (§1) ASZ001 and Sufu-KO cells were seeded in 96-well plates (10,000/well, 100 μL) and incubated overnight under growth conditions. On the second day, ‘growth’ media was removed and replaced by ‘assay’ media (100 μL). On the third day, cells were treated with a serial dilution of drugs or DMSO for 48 h. mRNA expression was determined through Taqman Fast Cells-to-CT Kit (#4399003) per the manufacturer's instructions. In brief, cells were washed with chilled PBS, then mixed with lysis solution containing DNase I and incubated at RT for 5 min. Stop solution was then added to quench the lysis reagents. cDNA was then synthesized through a BioRad MyCycler following addition of reverse transcriptase. Finally, the cDNA was amplified through an ABI 7500 system following addition of Taqman Fast Universal PCR Master Mix and Taqman Gene Expression Primer. Relative gene expression levels were computed by the ΔΔCt method. Values represent mRNA expression relative to DMSO control (set at 1.0). Data were analyzed using GraphPad Prism, and IC50 values are the mean±SEM for at least two separate experiments performed in triplicate. Primers used are as follows: mouse ActB (Mm00607939_s1); mouse GLI1 (Mm00494645_ml); mouse Gli2 (Mm01293117_ml); mouse Ptch1 (Mm00436026_ml); mouse Hhip (Mm00469580_ml).

GLI1 mRNA expression [2] = test: RT-qPCR GLI1 mRNA expression in OHCs-stimulated C3H10T1/2 MEFs; type: cell-based, mouse; conditions: for % Gli1 Expression: C3H10T1/2 MEFs, 10 μM, relative to Hh-agonist OHCs (set as 100%)
Procedure: as §1
C3H10T1/2 MEFs were seeded in 24-well plates (50,000/well, 500 μL). Following 24 h incubation, the ‘growth’ media was removed and replaced with ‘assay’ media (500 μL). On the third day, cells were treated with either DMSO, OHCs, or OHCs+drugs. Following a 24 h incubation, gene expression analysis was carried out following identical protocols as described above.

GLI1 mRNA expression [3] = test: RT-qPCR GLI1 mRNA expression in Sufu-KO MEFs; type: cell-based, mouse
Procedure: as §1

ASZ001 cells = test: MTS anti-proliferative assay in ASZ001 cells; type: cell-based, murine; conditions: Mus musculus, ASZ001; Table 5, 48 h, Ave ± SEM
Procedure: Cell viability was assessed by MTS proliferation assay kit (Promega) per manufacturer's protocol. Briefly, 2×10^4 cells were plated in a 96-well plate in 100 μL growth medium to make the cell population at ˜80% confluence. After 24 h, 1 μL drug solution was added to each well. DMSO was used as vehicle compound. After 48 h incubation (37° C., 5% CO2), 20 μL of freshly prepared 3-(4,5-dimethylthiazol-2-yl)-5-(3-carboxymethoxyphenyl)-2-(4-sulfophenyl)-2H-tetrazolium (MTS)/phenazine methosulfate (PMS) solution was added to each well, and the plate was returned to the incubator for 1 h. Absorbance at 490 nm was recorded, and the result was analyzed by GraphPad Prism 5. GI50 values represent mean±SEM for at least two separate experiments performed in triplicate.

[4] = Table 2, mean ± SEM, read-out: GLI1 mRNA expression, IC50 ASZ001
[5] = Table 2, mean ± SEM, read-out: GLI1 mRNA expression, IC50 C3H10T1/2
[6] = Table 2, mean ± SEM, read-out: GLI1 mRNA expression, IC50 Sufu-KO
[7] = Table 4, racemates and enantiomers, mean ± SEM, read-out: RT-qPCR, IC50 ASZ001
[8] = Table 4, racemates and enantiomers, mean ± SEM, read-out: RT-qPCR, IC50 C3H10T1/2
[9] = Table 4, racemates and enantiomers, mean ± SEM, read-out: RT-qPCR, IC50 Sufu-KO
[10] = Mus musculus, ASZ001, Table 5, GLI1 mRNA, Ave ± SEM, read-out: RT-qPCR, IC50 ASZ001
[11] = Mus musculus, Table 5, GLI1 mRNA, Ave ± SEM, read-out: RT-qPCR, IC50 Sufu-KO

| IC50 (GLI1 mRNA expression [1]; [4]) | IC50 (GLI1 mRNA expression [2]; [5]) | IC50 (GLI1 mRNA expression [3]; [6]) | IC50 (GLI1 mRNA expression [1]; [10]) | IC50 (GLI1 mRNA expression [3]; [11]) | Compound | % Gli1 Expression (GLI1 mRNA expression [2]; mean ± SEM) | GI50 (ASZ001 cells) | further results |
| --- | --- | --- | --- | --- | --- | --- | --- | --- |
| 5.8 ± 1.1 µM | 760 ± 230 nM | 990 ± 320 nM |  |  | COc1cccc(C(Nc2cc(C)ccn2)c2ccc3cccnc3c2O)c1C (racemic) [Compound 2] | 7.0 ± 1.4% |  |  |
| 2.2 ± 0.9 µM | 1200 ± 400 nM | 310 ± 210 nM |  |  | Cc1ccnc(NC(c2cc(C)ccc2C)c2ccc3cccnc3c2O)c1 (racemic) [Compound 3] | 10.0 ± 2.4% |  | IC50 (GLI1 mRNA expression [1]; [7]): 2.2 ± 0.9 µM; IC50 (GLI1 mRNA expression [2]; [8]): 1200 ± 400 nM; IC50 (GLI1 mRNA expression [3]; [9]): 310 ± 210 nM |
| 7.1 ± 1.2 µM | 1800 ± 500 nM | 630 ± 200 nM |  |  | COc1ccc(C(Nc2cc(C)ccn2)c2ccc3cccnc3c2O)cc1O (racemic) [Compound 5] | 6.1 ± 0.6% |  |  |
| > 10 µM | 3100 ± 1200 nM | 780 ± 160 nM |  |  | CCOc1cc(C(Nc2cc(C)ccn2)c2ccc3cccnc3c2O)ccc1OC (racemic) [Compound 6] | 7.6 ± 0.9% |  | reduction of GLI1 expression in ASZ001 (in words) (GLI1 mRNA expression [1]): did not reduce GLI1 expression |
| 2.8 ± 1.5 µM | 570 ± 140 nM | 480 ± 220 nM |  |  | Oc1c(C(Nc2ccccn2)c2ccc(Cl)c(Cl)c2)ccc2cccnc12 (racemic) [Compound 7] | 4.2 ± 0.9% |  | IC50 (GLI1 mRNA expression [1]; [7]): 2.8 ± 1.5 µM; IC50 (GLI1 mRNA expression [2]; [8]): 570 ± 140 nM; IC50 (GLI1 mRNA expression [3]; [9]): 480 ± 220 nM |
| 4.5 ± 2.6 µM | 980 ± 470 nM | 1300 ± 200 nM |  |  | CSc1ccc(C(Nc2cc(C)ccn2)c2ccc3cccnc3c2O)cc1 (racemic) [Compound 8] | 4.1 ± 1.1% |  |  |
| > 10 µM | 620 ± 190 nM | 1900 ± 600 nM |  |  | Cc1ccccc1C(Nc1ccccn1)c1ccc2cccnc2c1O (racemic) [Compound 9] | 10.6 ± 1.9% |  | reduction of GLI1 expression in ASZ001 (in words) (GLI1 mRNA expression [1]): did not reduce GLI1 expression |
| 8.4 ± 2 µM | 210 ± 100 nM | 1500 ± 400 nM |  |  | Cc1ccnc(NC(c2cccc(Cl)c2Cl)c2ccc3cccnc3c2O)c1 (racemic) [Compound 10] | 18.2 ± 1.5% |  | IC50 (GLI1 mRNA expression [1]; [7]): 8.4 ± 2 µM; IC50 (GLI1 mRNA expression [2]; [8]): 210 ± 100 nM; IC50 (GLI1 mRNA expression [3]; [9]): 1500 ± 400 nM |
| > 10 µM | 390 ± 270 nM | 3700 ± 1000 nM |  |  | Cc1ccc2ccc(C(Nc3ccccn3)c3ccc(Cl)c(Cl)c3)c(O)c2n1 (racemic) [Compound 11] | 16.6 ± 0.7% |  | reduction of GLI1 expression in ASZ001 (in words) (GLI1 mRNA expression [1]): did not reduce GLI1 expression |
| 3.6 ± 1.5 µM | 730 ± 70 nM | 1000 ± 200 nM |  |  | Oc1c(C(Nc2ccccn2)c2c(F)cccc2Cl)ccc2cccnc12 (racemic) [Compound 12] | 6.5 ± 0.8% |  | IC50 (GLI1 mRNA expression [1]; [7]): 3.6 ± 1.5 µM; IC50 (GLI1 mRNA expression [2]; [8]): 730 ± 70 nM; IC50 (GLI1 mRNA expression [3]; [9]): 1000 ± 200 nM |
| 3.6 ± 1.1 µM | 1000 ± 300 nM | 1700 ± 100 nM |  |  | COc1ccc(C(Nc2ccccn2)c2ccc3cccnc3c2O)cc1[N+](=O)[O-] (racemic) [Compound 13] | 5.9 ± 0.3% |  |  |
|  |  |  |  |  | CCOc1cccc(C(Nc2cc(C)ccn2)c2ccc3cccnc3c2O)c1OC (racemic) [s2] | 63.7 ± 7.2% |  |  |
|  |  |  |  |  | CCOc1cccc(C(Nc2cc(C)ccn2)c2ccc3cccnc3c2O)c1C (racemic) [s3] | 59.1 ± 11.9% |  |  |
|  |  |  |  |  | CCOc1cccc(C(Nc2ccccn2)c2ccc3ccc(C)nc3c2O)c1 (racemic) [s6] | 56.1 ± 2.1% |  |  |
|  |  |  |  |  | CCOc1ccc(C(Nc2ccccn2)c2ccc3ccc(C)nc3c2O)cc1OC (racemic) [s7] | >100% |  |  |
|  |  |  |  |  | CCc1ccc(C(Nc2cc(C)ccn2)c2ccc3cccnc3c2O)cc1 (racemic) [s10] | 79.4 ± 8.1% |  |  |
|  |  |  |  |  | COc1ccc(C(Nc2ccccn2)c2ccc3ccc(C)nc3c2O)cc1C (racemic) [s11] | 62.1 ± 6.4% |  |  |

| IC50 (GLI1 mRNA expression [1]; [4]) | IC50 (GLI1 mRNA expression [2]; [5]) | IC50 (GLI1 mRNA expression [3]; [6]) | IC50 (GLI1 mRNA expression [1]; [10]) | IC50 (GLI1 mRNA expression [3]; [11]) | Compound | % Gli1 Expression (GLI1 mRNA expression [2]; mean ± SEM) | GI50 (ASZ001 cells) | further results |
| --- | --- | --- | --- | --- | --- | --- | --- | --- |
|  |  |  |  |  | Cc1ccc2ccc(C(Nc3ccccn3)c3ccccc3Cl)c(O)c2n1 (racemic) [s12] | 23.6 ± 2.8% |  |  |
|  |  |  |  |  | Cc1ccc2ccc(C(Nc3ccccn3)c3ccccc3F)c(O)c2n1 (racemic) [s14] | 78.9 ± 17.6% |  |  |
|  |  |  |  |  | CCOc1ccc(C(Nc2ccccn2)c2ccc3ccc(C)nc3c2O)cc1 (racemic) [s16] | 86.8 ± 5.7% |  |  |
|  |  |  |  |  | COc1ccc(C(Nc2ccccn2)c2ccc3ccc(C)nc3c2O)cc1 (racemic) [s18] | >100% |  |  |
|  |  |  |  |  | COc1ccc(I)cc1C(Nc1cc(C)ccn1)c1ccc2cccnc2c1O (racemic) [s19] | >100% |  |  |
|  |  |  | 1.6 ± 0.7 µM | 980 ± 210 nM | CCN(CC)c1ccc(C(Nc2ccccn2)c2cc(C)c3ccc(C)nc3c2O)cc1 (centres unmarked) [Compound 16, 7-((4-Diethylaminophenyl)(pyridin-2-ylamino)methyl)-2,5-dimethylquinolin-8-ol] |  | 15.7 ± 2.8 µM |  |
|  |  |  | 9.9 ± 1.4 µM | > 25000 nM | CCN(CC)c1ccc(C(Nc2ccccn2)c2ccc3ccccc3c2O)cc1 (centres unmarked) [Compound 17, 2-((4-Diethylaminophenyl)(pyridin-2-ylamino)methyl)naphthalen-1-ol] |  | > 100 µM |  |
|  |  |  | 14.6 ± 1.4 µM | > 25000 nM | CCN(CC)c1ccc(C(Nc2ccccn2)c2c(O)ccc3cccnc23)cc1 (centres unmarked) [Compound 19, 8-((4-Diethylaminophenyl)(pyridin-2-ylamino)methyl)quinolin-7-ol] |  | > 100 µM |  |
|  |  |  | 0.84 ± 0.06 µM | > 25000 nM | CCN(CC)c1ccc(C(Nc2ccccn2)c2ccc3ccc(C)nc3c2OC(C)C)cc1 (centres unmarked) [Compound 21, N-((4-Diethylaminophenyl)(8-isopropoxy-2-methylquinolin-7-yl)methyl)pyridin-2-amine] |  | > 100 µM |  |
|  |  |  | 1.9 ± 0.5 µM | > 25000 nM | C#CCCOc1c(C(Nc2ccccn2)c2ccc(N(CC)CC)cc2)ccc2ccc(C)nc12 (centres unmarked) [Compound 23, N-((4-Diethylaminophenyl)(8-(but-3-yn-1-yloxy)-2-methylquinolin-7-yl)methyl)pyridin-2-amine] |  | > 100 µM |  |
|  |  |  | 1.7 ± 0.3 µM | > 25000 nM | CCN(CC)c1ccc(C(Nc2ccccn2)c2ccc3ccc(C)nc3c2OCc2ccccc2)cc1 (centres unmarked) [Compound 24, N-((4-Diethylaminophenyl)(8-benzyloxy-2-methylquinolin-7-yl)methyl)pyridin-2-amine] |  | > 100 µM |  |
|  |  |  | 1.3 ± 0.4 µM | > 25000 nM | CCN(CC)c1ccc(C(Nc2ccccn2)c2ccc3ccc(C)nc3c2OCc2cccc(OC)c2)cc1 (centres unmarked) [Compound 25, N-((4-Diethylaminophenyl)(8-(3-methoxybenzyloxy)-2-methylquinolin-7-yl)methyl)pyridin-2-amine] |  | > 100 µM |  |
|  |  |  | 1.2 ± 0.5 µM | > 25000 nM | CCN(CC)c1ccc(C(Nc2ccccn2)c2ccc3ccc(C)nc3c2OCc2ccc(OC)cc2)cc1 (centres unmarked) [Compound 26, N-((4-Diethylaminophenyl)(8-(4-methoxybenzyloxy)-2-methylquinolin-7-yl)methyl)pyridin-2-amine] |  | > 100 µM |  |
|  |  |  | 6.9 ± 1.1 µM | > 25000 nM | CCN(CC)c1ccc(C2c3ccc4ccc(C)nc4c3OC(=O)N2c2ccccn2)cc1 (centres unmarked) [Compound 27, 4-(4-Diethylaminophenyl)-9-methyl-3-(pyridin-2-yl)-3,4-dihydro-2H-[1,3]oxazino[5,6-h]quinolin-2-one] |  | > 100 µM |  |
|  |  |  | 7.2 ± 1.1 µM | 2100 ± 600 nM | CCN(CC)c1ccc(C(C)(Nc2ccccn2)c2ccc3ccc(C)nc3c2O)cc1 (centres unmarked) [Compound 28, 7-(1-(4-(Diethylamino)phenyl)-1-(pyridin-2-ylamino)ethyl)-2-methylquinolin-8-ol] |  | 25.1 ± 4.2 µM |  |
|  |  |  |  |  | Cc1ccc(NC(c2cccc(C)n2)c2ccc3cccnc3c2O)nc1 (centres unmarked) [s25] | >100% |  |  |
